Molecular target: T1, WIZ protein (HiBit-WIZ fusion protein) (Homo sapiens, UniProt O95785+Q96SW2)
T1 construct: expressed in transfected cells
Experiment: Quantification of WIZ protein levels in HiBit tag fusion protein assay (WIZ HiBit assay in 293T cells)
Format: cell-based
Settings: for Dmax at 25 µM / remaining activity at 25 µM: HEK-293T, 293T cells; for Dmax at 25 µM: 100 − Amax, read-out: % degradation of WIZ (100 − Amax); for remaining activity at 25 µM: DMSO-normalized, curve-fitted percentage of WIZ-HiBit remaining at 25 uM, read-out: WIZ Amax; for DC50: WIZ HiBit assay in 293T cells, 10-point, 5-fold dose response, highest concentration 25 μM, about 18 hours, read-out: WIZ AC50
Experimental: The HiBit system from Promega was used to develop high-throughput and quantitative assays to measure changes in WIZ protein levels in response to compounds. The HiBit tag was derived from a split Nanoluciferase and has the following protein sequence: […] (SEQ ID NO: 1). The complementary fragment of Nanoluciferase (known as LgBit, from Promega), was added to the HiBit tag to form an active Nanoluciferase enzyme whose activity can be precisely measured. In this way, the levels of a fusion protein with the HiBit tag can be quantified in cell lysates.
Lentiviral vectors, based on the Invitrogen™ pLenti6.2/V5 DEST backbone were constructed that places the HiBit tag upstream of WIZ and expressed the fusion protein from an HSVTK promotor.
To ensure moderate and consistent expression of the HiBit-WIZ fusion protein across all cells in the population, stable cell lines were constructed from cells harboring a single copy of the construct. Lentivirus packaged with the constructs were made using the ViraPower™ kit from Invitrogen™. 293T cells from ATCC (Catalog number: CRL-3216), were infected with the virus at low multiplicity of infection and selected by 5 μg/mL blasticidin in culture media for 2 weeks.
The levels of HiBit-WIZ tagged fusion proteins in compound-treated cell lines were measured as follows:
On day 1, cells were diluted to 1.0×10^6 cells/ml in normal growth medium. 20 μL of cell suspension were plated in each well of a solid white 384-well plate. Plates were incubated overnight in a 37° C. and 5% CO2 humidified tissue culture incubator.
On day 2, serial dilutions of compounds were made in 384-well plates. Compound plates were set up with DMSO in columns 1, 2, 23, 24, and 10-point compound dilution series in column 3-12 and column 13-22. 10 mM stock solution of compound were placed into column 3 or 13 and a 1:5 serial dilution was carried out until there was a 10-point dilution series per compound. 50 nL of diluted compounds were transferred into the plated cells by Echo® (Labcyte) acoustic transfer. The highest concentration of compound was 25 μM. Plates were incubated overnight (about 18 hours) in a 37° C. and 5% CO2 humidified tissue culture incubator.
On day 3, plates were removed from the incubator and allowed to equilibrate at room temperature for 60 minutes. HiBit substrate (Nano-Glo® HiBit Lytic Detection System, Promega Catalogue number: N3050) was added as described by the manufacturers protocols. Plates were incubated at room temperature for 30 minutes and luminescence was read using an EnVision® reader (PerkinElmer®). Data was analyzed and visualized using the Spotfire® software package.
WIZ Degradation Activity of Compounds (Table 1)
WIZ Amax reflects the DMSO-normalized, curve-fitted percentage of WIZ-HiBit remaining at 25 uM. It was calculated by normalizing […] controls to 100%, parametric curve fitting of the dose response data (10-point, 5-fold), followed by calculation of response at 25 uM using the fitted equation (nd=not determined).

T1 sequence (O95785 whole entry, the tested form may be a part): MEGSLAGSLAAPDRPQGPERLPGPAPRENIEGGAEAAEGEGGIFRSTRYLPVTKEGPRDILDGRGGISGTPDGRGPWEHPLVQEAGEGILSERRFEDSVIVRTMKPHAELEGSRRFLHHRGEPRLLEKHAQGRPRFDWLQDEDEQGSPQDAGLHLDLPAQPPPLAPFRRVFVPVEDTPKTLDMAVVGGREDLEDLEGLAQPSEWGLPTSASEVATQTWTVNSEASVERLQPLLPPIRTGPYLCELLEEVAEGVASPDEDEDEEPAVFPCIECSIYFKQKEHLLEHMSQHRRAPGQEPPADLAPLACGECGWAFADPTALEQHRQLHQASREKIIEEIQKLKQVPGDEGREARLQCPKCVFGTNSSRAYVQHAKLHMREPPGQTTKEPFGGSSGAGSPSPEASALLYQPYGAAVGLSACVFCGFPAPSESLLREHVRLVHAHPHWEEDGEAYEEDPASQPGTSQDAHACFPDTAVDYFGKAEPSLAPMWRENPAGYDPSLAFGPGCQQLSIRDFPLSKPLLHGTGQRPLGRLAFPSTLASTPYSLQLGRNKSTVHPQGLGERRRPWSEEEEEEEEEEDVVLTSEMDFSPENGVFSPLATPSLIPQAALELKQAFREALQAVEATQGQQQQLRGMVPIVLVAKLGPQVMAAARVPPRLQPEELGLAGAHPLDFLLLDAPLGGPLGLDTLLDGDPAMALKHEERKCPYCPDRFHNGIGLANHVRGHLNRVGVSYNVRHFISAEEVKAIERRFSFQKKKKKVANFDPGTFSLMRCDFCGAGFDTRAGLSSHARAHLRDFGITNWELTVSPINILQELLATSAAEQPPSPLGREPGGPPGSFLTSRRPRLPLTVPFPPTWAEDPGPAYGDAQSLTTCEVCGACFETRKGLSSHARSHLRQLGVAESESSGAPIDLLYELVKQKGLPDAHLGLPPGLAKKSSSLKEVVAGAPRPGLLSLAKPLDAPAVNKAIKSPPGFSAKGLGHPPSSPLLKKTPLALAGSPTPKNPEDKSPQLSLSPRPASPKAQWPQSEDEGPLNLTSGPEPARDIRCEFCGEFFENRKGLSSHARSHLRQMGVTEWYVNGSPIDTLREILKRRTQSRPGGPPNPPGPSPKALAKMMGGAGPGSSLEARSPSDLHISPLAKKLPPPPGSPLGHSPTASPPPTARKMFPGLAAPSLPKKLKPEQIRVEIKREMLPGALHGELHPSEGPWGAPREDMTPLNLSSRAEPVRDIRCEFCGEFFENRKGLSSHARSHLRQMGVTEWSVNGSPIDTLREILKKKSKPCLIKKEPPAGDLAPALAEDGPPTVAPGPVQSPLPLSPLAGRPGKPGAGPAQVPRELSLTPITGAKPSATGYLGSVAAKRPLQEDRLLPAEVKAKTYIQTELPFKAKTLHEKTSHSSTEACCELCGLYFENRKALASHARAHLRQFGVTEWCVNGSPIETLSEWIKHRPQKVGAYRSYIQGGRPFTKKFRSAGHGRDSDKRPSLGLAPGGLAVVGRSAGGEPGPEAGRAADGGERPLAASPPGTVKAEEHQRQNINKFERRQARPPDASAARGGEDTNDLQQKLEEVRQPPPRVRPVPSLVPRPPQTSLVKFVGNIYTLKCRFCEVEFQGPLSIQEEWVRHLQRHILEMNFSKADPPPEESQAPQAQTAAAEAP
T1 sequence (Q96SW2 whole entry, the tested form may be a part): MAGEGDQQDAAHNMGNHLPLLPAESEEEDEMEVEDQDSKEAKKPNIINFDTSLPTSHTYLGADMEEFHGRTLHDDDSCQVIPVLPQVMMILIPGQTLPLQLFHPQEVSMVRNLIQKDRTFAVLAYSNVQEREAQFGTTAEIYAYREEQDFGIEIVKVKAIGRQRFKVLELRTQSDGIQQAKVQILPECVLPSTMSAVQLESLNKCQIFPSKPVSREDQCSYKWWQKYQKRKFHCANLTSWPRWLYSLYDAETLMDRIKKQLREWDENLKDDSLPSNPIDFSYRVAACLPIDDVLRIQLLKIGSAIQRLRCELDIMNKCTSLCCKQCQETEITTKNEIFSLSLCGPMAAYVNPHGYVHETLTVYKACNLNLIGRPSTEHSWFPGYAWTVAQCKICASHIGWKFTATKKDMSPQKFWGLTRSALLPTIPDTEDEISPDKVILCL
T1 sequence (Q16531 whole entry partner, the tested form may be a part): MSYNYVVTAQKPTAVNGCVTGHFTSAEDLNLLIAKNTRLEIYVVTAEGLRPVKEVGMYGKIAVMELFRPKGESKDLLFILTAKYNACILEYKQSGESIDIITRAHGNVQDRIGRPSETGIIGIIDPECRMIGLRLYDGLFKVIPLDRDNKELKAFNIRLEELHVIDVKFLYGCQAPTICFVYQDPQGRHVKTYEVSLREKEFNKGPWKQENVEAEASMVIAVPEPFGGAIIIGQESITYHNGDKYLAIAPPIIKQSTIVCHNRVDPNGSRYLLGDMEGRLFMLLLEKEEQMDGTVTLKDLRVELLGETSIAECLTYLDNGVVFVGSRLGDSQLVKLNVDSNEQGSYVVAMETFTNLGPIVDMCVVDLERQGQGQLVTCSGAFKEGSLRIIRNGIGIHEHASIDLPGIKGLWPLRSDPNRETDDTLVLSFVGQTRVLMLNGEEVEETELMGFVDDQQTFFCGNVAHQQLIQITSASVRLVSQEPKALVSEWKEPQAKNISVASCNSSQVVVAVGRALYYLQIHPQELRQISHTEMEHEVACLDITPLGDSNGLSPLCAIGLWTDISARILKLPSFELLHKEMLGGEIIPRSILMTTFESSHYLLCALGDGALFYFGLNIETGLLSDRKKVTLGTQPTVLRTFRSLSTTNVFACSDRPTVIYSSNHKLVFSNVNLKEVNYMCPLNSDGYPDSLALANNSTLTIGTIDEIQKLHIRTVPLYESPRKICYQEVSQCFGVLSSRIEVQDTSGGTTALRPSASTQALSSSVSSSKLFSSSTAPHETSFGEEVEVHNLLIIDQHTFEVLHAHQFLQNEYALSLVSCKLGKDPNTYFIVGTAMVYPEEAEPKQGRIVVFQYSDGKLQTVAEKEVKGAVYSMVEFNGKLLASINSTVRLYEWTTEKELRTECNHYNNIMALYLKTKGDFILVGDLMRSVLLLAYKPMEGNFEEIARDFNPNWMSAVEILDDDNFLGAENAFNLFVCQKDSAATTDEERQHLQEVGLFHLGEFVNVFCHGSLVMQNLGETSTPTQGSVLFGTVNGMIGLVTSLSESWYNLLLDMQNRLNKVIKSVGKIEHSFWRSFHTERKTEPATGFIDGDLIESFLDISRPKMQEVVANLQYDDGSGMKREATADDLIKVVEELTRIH

Dmax at 25 µM	remaining activity at 25 µM	DC50	Compound
80%	20%	201 nM	O=C1CCN(c2cnn3ccc(CC4CCN(CC(F)(F)F)CC4)cc23)C(=O)N1 [Example 30, 1-(5-((1-(2,2,2-trifluoroethyl)piperidin-4-yl)methyl)pyrazolo[1,5-a]pyridin-3-yl)dihydropyrimidine-2,4(1H,3H)-dione]
74%	26%	27 nM	O=C1CCN(c2cnn3ccc(CC4CCN(CC(F)(F)C(F)F)CC4)cc23)C(=O)N1 [Example 31, 1-(5-((1-(2,2,3,3-tetrafluoropropyl)piperidin-4-yl)methyl)pyrazolo[1,5-a]pyridin-3-yl)dihydropyrimidine-2,4(1H,3H)-dione]
82%	18%	23 nM	O=C1CCN(c2cnn3ccc(CC4CCN(CC5CC(F)(F)C5)CC4)cc23)C(=O)N1 [Example 32, 1-(5-((1-((3,3-difluorocyclobutyl)methyl)piperidin-4-yl)methyl)pyrazolo[1,5-a]pyridin-3-yl)dihydropyrimidine-2,4(1H,3H)-dione]
73%	27%	31 nM	O=C1CCN(c2cnn3ccc(CC4CCN(Cc5cncc(F)c5)CC4)cc23)C(=O)N1 [Example 33, 1-(5-((1-((5-fluoropyridin-3-yl)methyl)piperidin-4-yl)methyl)pyrazolo[1,5-a]pyridin-3-yl)dihydropyrimidine-2,4(1H,3H)-dione]
73%	27%	945 nM	COCCN1CCC(Cc2ccn3ncc(N4CCC(=O)NC4=O)c3c2)CC1 [Example 34, 1-(5-((1-(2-methoxyethyl)piperidin-4-yl)methyl)pyrazolo[1,5-a]pyridin-3-yl)dihydropyrimidine-2,4(1H,3H)-dione]
73%	27%	3140 nM	O=C1CCN(c2cnn3ccc(CC4CCN(CCO)CC4)cc23)C(=O)N1 [Example 35, 1-(5-((1-(2-hydroxyethyl)piperidin-4-yl)methyl)pyrazolo[1,5-a]pyridin-3-yl)dihydropyrimidine-2,4(1H,3H)-dione]
72%	28%	68 nM	Cc1cncc(CN2CCC(Cc3ccn4ncc(N5CCC(=O)NC5=O)c4c3)CC2)c1 [Example 36, 1-(5-((1-((5-methylpyridin-3-yl)methyl)piperidin-4-yl)methyl)pyrazolo[1,5-a]pyridin-3-yl)dihydropyrimidine-2,4(1H,3H)-dione]
72%	28%	446 nM	CC(C)N1CCC(Cc2ccn3ncc(N4CCC(=O)NC4=O)c3c2)CC1 [Example 37, 1-(5-((1-isopropylpiperidin-4-yl)methyl)pyrazolo[1,5-a]pyridin-3-yl)dihydropyrimidine-2,4(1H,3H)-dione]
71%	29%	112 nM	O=C1CCN(c2cnn3ccc(CC4CCN(Cc5ccccc5F)CC4)cc23)C(=O)N1 [Example 38, 1-(5-((1-(2-fluorobenzyl)piperidin-4-yl)methyl)pyrazolo[1,5-a]pyridin-3-yl)dihydropyrimidine-2,4(1H,3H)-dione]
71%	29%	83 nM	CC(C)(F)CN1CCC(Cc2ccn3ncc(N4CCC(=O)NC4=O)c3c2)CC1 [Example 39, 1-(5-((1-(2-fluoro-2-methylpropyl)piperidin-4-yl)methyl)pyrazolo[1,5-a]pyridin-3-yl)dihydropyrimidine-2,4(1H,3H)-dione]
68%	32%	87 nM	C=C(C)CN1CCC(Cc2ccn3ncc(N4CCC(=O)NC4=O)c3c2)CC1 [Example 39a, 1-(5-((1-(2-methylallyl)piperidin-4-yl)methyl)pyrazolo[1,5-a]pyridin-3-yl)dihydropyrimidine-2,4(1H,3H)-dione]
70%	30%	52 nM	COc1cccc(CN2CCC(Cc3ccn4ncc(N5CCC(=O)NC5=O)c4c3)CC2)c1 [Example 40, 1-(5-((1-(3-methoxybenzyl)piperidin-4-yl)methyl)pyrazolo[1,5-a]pyridin-3-yl)dihydropyrimidine-2,4(1H,3H)-dione]
70%	30%	27 nM	Cc1ccccc1CN1CCC(Cc2ccn3ncc(N4CCC(=O)NC4=O)c3c2)CC1 [Example 41, 1-(5-((1-(2-methylbenzyl)piperidin-4-yl)methyl)pyrazolo[1,5-a]pyridin-3-yl)dihydropyrimidine-2,4(1H,3H)-dione]
70%	30%	26 nM	Cc1c(F)cccc1CN1CCC(Cc2ccn3ncc(N4CCC(=O)NC4=O)c3c2)CC1 [Example 42, 1-(5-((1-(3-fluoro-2-methylbenzyl)piperidin-4-yl)methyl)pyrazolo[1,5-a]pyridin-3-yl)dihydropyrimidine-2,4(1H,3H)-dione]
70%	30%	34 nM	O=C1CCN(c2cnn3ccc(CC4CCN(CC(F)F)CC4)cc23)C(=O)N1 [Example 43, 1-(5-((1-(2,2-difluoroethyl)piperidin-4-yl)methyl)pyrazolo[1,5-a]pyridin-3-yl)dihydropyrimidine-2,4(1H,3H)-dione]
70%	30%	43 nM	O=C1CCN(c2cnn3ccc(CC4CCN(Cc5cc(F)cc(F)c5)CC4)cc23)C(=O)N1 [Example 44, 1-(5-((1-(3,5-difluorobenzyl)piperidin-4-yl)methyl)pyrazolo[1,5-a]pyridin-3-yl)dihydropyrimidine-2,4(1H,3H)-dione]
70%	30%	23 nM	O=C1CCN(c2cnn3ccc(CC4CCN(Cc5ccc(F)c(F)c5)CC4)cc23)C(=O)N1 [Example 45, 1-(5-((1-(3,4-difluorobenzyl)piperidin-4-yl)methyl)pyrazolo[1,5-a]pyridin-3-yl)dihydropyrimidine-2,4(1H,3H)-dione]
69%	31%	58 nM	Cc1ccc(CN2CCC(Cc3ccn4ncc(N5CCC(=O)NC5=O)c4c3)CC2)cn1 [Example 46, 1-(5-((1-((6-methylpyridin-3-yl)methyl)piperidin-4-yl)methyl)pyrazolo[1,5-a]pyridin-3-yl)dihydropyrimidine-2,4(1H,3H)-dione]
69%	31%	157 nM	Cc1ccc(CN2CCC(Cc3ccn4ncc(N5CCC(=O)NC5=O)c4c3)CC2)cc1 [Example 47, 1-(5-((1-(4-methylbenzyl)piperidin-4-yl)methyl)pyrazolo[1,5-a]pyridin-3-yl)dihydropyrimidine-2,4(1H,3H)-dione]
68%	32%	61 nM	CC(c1cccc(F)c1)N1CCC(Cc2ccn3ncc(N4CCC(=O)NC4=O)c3c2)CC1 (stereo not drawn) [Example 48, 1-(5-((1-(1-(3-fluorophenyl)ethyl)piperidin-4-yl)methyl)pyrazolo[1,5-a]pyridin-3-yl)dihydropyrimidine-2,4(1H,3H)-dione]
66%	34%	2790 nM	CN1CCC(Cc2ccn3ncc(N4CCC(=O)NC4=O)c3c2)CC1 [Example 49, 1-(5-((1-methylpiperidin-4-yl)methyl)pyrazolo[1,5-a]pyridin-3-yl)dihydropyrimidine-2,4(1H,3H)-dione]
66%	34%	113 nM	O=C1CCN(c2cnn3ccc(CC4CCN(Cc5ccc(F)cc5F)CC4)cc23)C(=O)N1 [Example 50, 1-(5-((1-(2,4-difluorobenzyl)piperidin-4-yl)methyl)pyrazolo[1,5-a]pyridin-3-yl)dihydropyrimidine-2,4(1H,3H)-dione]

Source: patent US11787785B2 (NOVARTIS AG, priority 2021, dated 2023)
